Some results are limits rather than exact numbers.

As usually defined, the IC50 is the concentration needed to halve the response being measured.

A short description of data set [1]: in vitro. The conditions noted are these: African green monkey.
Data set [2] deals with persistent USUV. The format is cell-based, Usutu virus.
Data set [3] deals with persistent USUV. The format is cell-based, Usutu virus. The source holds these as a separate data set.
Data set [4] relates to USUV. Briefly: microbe, parasite or virus in culture. The format is cell-based. The conditions noted are these: Usutu virus, Vero, 48 h.
The conditions of data set [5]: in vivo; cited from earlier work.
Data set [6] has as its system Vero cells.

In turn, `NC(=O)c1ncn([C@@H]2O[C@H](CO)[C@@H](O)[C@H]2O)n1` [Ribavirin, 1-(β-D-Ribofuranosyl)-1H-1,2,4-triazole-3-carboxamide] yielded a CC50 in data set [1] of over 2000 µM. Also, in data set [2], the “Day by which infectious virus in the cellular supernatant is completely extinct” value was at most 6 days; the “Decrease in virus titers and RNA levels in cellular supernatants” value is reported as ~ 5 log10. Moreover, in data set [3], the “Decrease in intracellular viral RNA levels” value is listed as under 2 log10. Also, in data set [4], the IC50 was determined as 163 µM.

Molecule `NC(=O)c1nc(F)cnc1O` [Favipiravir, 6-fluoro-3-hydroxy-2-pyrazinecarboxamide] yielded a CC50 in data set [1] of over 2000 µM. Moreover, in data set [2], the “Day by which infectious virus in the cellular supernatant is completely extinct” value was at most 6 days; the “Decrease in virus titers and RNA levels in cellular supernatants” value is ~ 5 log10. The “Decrease in intracellular viral RNA levels” value in data set [3] is reported as under 2 log10. Also, in data set [4], the IC50 was determined as 315 µM. The Plasma concentration in data set [5] is 1500 to 2000 µM.

`O=c1[nH]cc(F)c(=O)[nH]1` [5-Fluorouracil, 2,4-dihydroxy-5-fluoropyrimidine]: the CC50 in data set [1] is 66 µM. Besides, the Toxicity in words entry in data set [6] is given as “elevated toxicity”. This molecule had an IC50 in data set [4] of 71 µM.

(Values after PMC6630443 (Viruses, 2019).)
